ChEMBL document CHEMBL1201862, “PubChem BioAssay data set” (2004)
Active and inactive are the calls of the source.

Key:
[1] = biological target: Peroxisome proliferator-activated receptor gamma/Nuclear receptor coactivator 1 (Homo sapiens, UniProt P37231); assay: (§1) TR-FRET dose response biochemical High Throughput Screening assay for agonists of the steroid receptor coactivator 1 (SRC-1) recruitment by the peroxisome proliferator-activated receptor gamma (PPAR gamma): non-selective agonists. [Related pubchem assays (depositor defined):AID1300, AID1808, AID504735, AID631]; type: protein assay
[2] = biological target: Botulinum neurotoxin type A (Clostridium botulinum (strain Hall / ATCC 3502 / NCTC 13319 / Type A), UniProt P0DPI1); assay: High-throughput multiplex microsphere dose response for inhibitors of toxin protease, specifically Botulinum neurotoxin light chain A protease, compounds from Cherry Pick 02.; type: functional; details: read-out: EC50_MICROM
Chain of Botulinum neurotoxin type A (P0DPI1 2-448 limits assumed): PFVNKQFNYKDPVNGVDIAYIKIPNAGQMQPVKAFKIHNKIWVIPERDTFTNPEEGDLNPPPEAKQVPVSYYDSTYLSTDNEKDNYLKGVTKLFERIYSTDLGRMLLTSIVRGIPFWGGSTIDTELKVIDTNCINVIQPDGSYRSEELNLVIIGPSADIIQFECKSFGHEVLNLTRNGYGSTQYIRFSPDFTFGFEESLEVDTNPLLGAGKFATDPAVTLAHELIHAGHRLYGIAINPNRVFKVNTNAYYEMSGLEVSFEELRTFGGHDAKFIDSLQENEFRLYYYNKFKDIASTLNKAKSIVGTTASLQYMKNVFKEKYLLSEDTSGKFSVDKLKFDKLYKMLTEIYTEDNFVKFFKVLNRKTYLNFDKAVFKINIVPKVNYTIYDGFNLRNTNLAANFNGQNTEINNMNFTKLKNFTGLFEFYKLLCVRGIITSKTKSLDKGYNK

[3] = biological target: Peroxisome proliferator-activated receptor gamma/Nuclear receptor coactivator 3 (Homo sapiens, UniProt P37231); assay: as §1, with “3 (SRC-3)” for “1 (SRC-1)”, “assays: 1301 (Confirmation screen.), 1048 (Primary screen.)]” for “assays (depositor defined):AID1300, AID1808, AID504735, AID631]”; type: functional
[4] = biological target: Botulinum neurotoxin type F (Clostridium botulinum, UniProt P30996); assay: High-throughput multiplex microsphere dose response for inhibitors of toxin protease, specifically Botulinum neurotoxin light chain F protease, compounds from Cherry Pick 02.; type: functional; details: read-out: EC50_MICROM
[5] = biological target: Protein S100-A4 (Homo sapiens, UniProt P26447); assay: S100A4-myosin IIA binding inhibitor potency, dose response, biochemical, fluorescence polarization, cherry-picked hits (AID 687001); type: functional
Chain of Protein S100-A4 (P26447 whole entry): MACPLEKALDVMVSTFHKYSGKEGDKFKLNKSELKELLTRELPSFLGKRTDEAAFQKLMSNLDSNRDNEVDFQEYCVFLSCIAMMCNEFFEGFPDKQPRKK

[6] = biological target: Peroxisome proliferator-activated receptor gamma/Nuclear receptor coactivator 2 (Homo sapiens, UniProt P37231); assay: TR-FRET dose response biochemical High Throughput Screening assay for agonists of the steroid receptor coactivator 2 (SRC-2) recruitment by the peroxisome proliferator-activated receptor gamma (PPAR gamma): non-selective agonists. [Related pubchem assays: 1297, 1032 ]; type: functional
Chain of Peroxisome proliferator-activated receptor gamma/Nuclear receptor coactivator 2 (P37231 whole entry): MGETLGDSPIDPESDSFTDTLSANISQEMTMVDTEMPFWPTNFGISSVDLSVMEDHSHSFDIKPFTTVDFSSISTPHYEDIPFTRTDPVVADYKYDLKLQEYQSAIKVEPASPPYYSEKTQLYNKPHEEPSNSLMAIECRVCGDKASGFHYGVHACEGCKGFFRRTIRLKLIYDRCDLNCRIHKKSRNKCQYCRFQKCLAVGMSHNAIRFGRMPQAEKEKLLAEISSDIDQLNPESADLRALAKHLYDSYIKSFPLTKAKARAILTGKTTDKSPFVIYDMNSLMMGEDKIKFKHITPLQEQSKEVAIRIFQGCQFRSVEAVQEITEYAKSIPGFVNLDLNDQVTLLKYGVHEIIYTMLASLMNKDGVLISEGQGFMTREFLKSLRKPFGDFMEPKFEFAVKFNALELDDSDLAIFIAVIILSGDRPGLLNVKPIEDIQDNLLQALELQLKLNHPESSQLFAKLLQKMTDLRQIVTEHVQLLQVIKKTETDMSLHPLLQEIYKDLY
Chain of Peroxisome proliferator-activated receptor gamma/Nuclear receptor coactivator 2 (Q15596 whole entry, further chain): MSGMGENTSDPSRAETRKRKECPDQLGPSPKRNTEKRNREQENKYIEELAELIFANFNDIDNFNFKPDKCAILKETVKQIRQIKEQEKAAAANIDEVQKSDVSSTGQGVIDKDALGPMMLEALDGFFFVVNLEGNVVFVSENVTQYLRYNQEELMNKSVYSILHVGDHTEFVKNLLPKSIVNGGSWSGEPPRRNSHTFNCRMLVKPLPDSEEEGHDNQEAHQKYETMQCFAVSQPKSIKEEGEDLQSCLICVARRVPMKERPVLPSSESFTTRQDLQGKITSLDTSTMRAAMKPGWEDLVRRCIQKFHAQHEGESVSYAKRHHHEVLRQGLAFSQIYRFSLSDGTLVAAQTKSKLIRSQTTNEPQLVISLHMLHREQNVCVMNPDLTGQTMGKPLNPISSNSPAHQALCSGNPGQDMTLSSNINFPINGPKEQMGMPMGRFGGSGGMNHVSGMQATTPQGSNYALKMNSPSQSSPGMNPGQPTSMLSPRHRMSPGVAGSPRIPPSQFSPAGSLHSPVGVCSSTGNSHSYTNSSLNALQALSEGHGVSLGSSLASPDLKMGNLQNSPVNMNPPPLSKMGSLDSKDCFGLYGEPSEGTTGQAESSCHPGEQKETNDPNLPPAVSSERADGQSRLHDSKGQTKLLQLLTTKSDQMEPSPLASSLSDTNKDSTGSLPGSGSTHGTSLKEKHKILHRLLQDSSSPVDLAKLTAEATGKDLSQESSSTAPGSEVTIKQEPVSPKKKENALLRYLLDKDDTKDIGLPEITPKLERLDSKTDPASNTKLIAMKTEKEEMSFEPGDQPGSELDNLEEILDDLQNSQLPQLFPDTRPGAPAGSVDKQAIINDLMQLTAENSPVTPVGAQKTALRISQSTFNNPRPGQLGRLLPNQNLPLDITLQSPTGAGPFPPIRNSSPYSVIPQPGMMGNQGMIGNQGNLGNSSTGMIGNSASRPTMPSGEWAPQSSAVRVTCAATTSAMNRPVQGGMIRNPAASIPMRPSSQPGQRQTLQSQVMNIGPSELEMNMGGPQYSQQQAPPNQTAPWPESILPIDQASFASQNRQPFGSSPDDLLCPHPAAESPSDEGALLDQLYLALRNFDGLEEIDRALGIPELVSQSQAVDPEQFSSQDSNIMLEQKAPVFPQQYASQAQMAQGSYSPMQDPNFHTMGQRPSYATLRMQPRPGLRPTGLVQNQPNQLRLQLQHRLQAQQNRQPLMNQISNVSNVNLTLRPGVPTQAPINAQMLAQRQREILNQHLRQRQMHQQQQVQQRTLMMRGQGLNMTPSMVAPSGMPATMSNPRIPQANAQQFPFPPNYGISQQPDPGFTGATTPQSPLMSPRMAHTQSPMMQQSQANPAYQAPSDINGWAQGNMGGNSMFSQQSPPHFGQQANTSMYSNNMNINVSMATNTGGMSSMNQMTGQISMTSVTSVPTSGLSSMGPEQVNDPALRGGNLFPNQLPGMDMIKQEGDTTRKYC

[7] = biological target: Vascular endothelial growth factor receptor 2 (Homo sapiens, UniProt P35968); type: functional
[8] = biological target: Tyrosine-protein kinase ABL1 (Homo sapiens, UniProt P00519); type: functional
[9] = biological target: Sphingosine 1-phosphate receptor 2 (Homo sapiens, UniProt O95136); assay: Late-stage fluorescence-based dose-response cell-based counterscreen assay to identify agonists of the Sphingosine 1-Phosphate Receptor 3 (S1P3): Sphingosine 1-Phosphate Receptor 2 (S1P2) agonist assay.; type: functional
Chain of Sphingosine 1-phosphate receptor 2 (O95136 whole entry): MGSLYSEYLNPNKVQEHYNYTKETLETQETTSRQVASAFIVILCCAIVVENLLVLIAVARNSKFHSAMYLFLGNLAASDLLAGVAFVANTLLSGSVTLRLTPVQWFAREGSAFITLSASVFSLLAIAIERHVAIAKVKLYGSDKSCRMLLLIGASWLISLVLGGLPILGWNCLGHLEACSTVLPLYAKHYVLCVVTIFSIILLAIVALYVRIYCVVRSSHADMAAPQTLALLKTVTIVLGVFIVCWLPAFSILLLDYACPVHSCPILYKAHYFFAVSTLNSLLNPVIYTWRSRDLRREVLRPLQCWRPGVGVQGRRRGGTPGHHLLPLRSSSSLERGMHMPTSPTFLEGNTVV

[10] = biological target: T1, Sphingosine 1-phosphate receptor 4 (Homo sapiens, UniProt O95977); assay: Late-stage fluorescence-based dose-response cell-based counterscreen assay to identify agonists of the Sphingosine 1-Phosphate Receptor 3 (S1P3): Sphingosine 1-Phosphate Receptor 4 (S1P4) agonist assay.; type: functional
T1 sequence (O95977 whole entry): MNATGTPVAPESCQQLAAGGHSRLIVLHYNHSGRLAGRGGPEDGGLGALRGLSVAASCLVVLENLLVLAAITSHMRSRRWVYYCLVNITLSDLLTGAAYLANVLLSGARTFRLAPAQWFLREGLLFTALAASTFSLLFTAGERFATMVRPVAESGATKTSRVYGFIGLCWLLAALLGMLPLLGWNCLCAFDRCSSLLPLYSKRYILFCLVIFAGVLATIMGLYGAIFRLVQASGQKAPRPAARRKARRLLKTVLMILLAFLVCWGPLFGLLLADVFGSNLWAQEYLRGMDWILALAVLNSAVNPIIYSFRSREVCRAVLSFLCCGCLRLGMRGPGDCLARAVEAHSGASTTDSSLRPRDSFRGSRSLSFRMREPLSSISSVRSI

[11] = biological target: T2, Mitochondrial peptide methionine sulfoxide reductase (Bos taurus, UniProt P54149); assay: Absorbance-based biochemical high throughput dose response assay for activators of Methionine sulfoxide reductase A (MsrA).; type: functional
T2 sequence (P54149 whole entry): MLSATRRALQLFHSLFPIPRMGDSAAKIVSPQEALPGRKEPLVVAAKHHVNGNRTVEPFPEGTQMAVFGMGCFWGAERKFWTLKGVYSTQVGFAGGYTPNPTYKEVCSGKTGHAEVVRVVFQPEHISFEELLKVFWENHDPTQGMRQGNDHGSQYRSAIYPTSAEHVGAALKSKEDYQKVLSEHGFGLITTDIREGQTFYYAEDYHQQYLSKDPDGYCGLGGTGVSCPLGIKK

[12] = biological target: T3, DNA dC->dU-editing enzyme APOBEC-3A (Homo sapiens, UniProt P31941); assay: APOBEC3A DNA deaminase inhibitors, dose response, biochemical (AID 504722); type: functional
T3 sequence (P31941 whole entry): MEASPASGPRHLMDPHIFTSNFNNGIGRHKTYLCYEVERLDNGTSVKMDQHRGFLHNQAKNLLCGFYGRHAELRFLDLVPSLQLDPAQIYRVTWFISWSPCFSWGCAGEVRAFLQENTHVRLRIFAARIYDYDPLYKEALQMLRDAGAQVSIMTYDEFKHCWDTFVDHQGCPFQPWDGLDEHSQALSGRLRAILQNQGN

[13] = biological target: T4, DNA dC->dU-editing enzyme APOBEC-3G (Homo sapiens, UniProt Q9HC16); assay: APOBEC3G deaminase inhibitors, SAR follow-up, biochemical, fluorescence, single-stranded DNA substrate (AID 602136); type: functional; details: read-out: IC50_Mean
T4 sequence (Q9HC16 whole entry): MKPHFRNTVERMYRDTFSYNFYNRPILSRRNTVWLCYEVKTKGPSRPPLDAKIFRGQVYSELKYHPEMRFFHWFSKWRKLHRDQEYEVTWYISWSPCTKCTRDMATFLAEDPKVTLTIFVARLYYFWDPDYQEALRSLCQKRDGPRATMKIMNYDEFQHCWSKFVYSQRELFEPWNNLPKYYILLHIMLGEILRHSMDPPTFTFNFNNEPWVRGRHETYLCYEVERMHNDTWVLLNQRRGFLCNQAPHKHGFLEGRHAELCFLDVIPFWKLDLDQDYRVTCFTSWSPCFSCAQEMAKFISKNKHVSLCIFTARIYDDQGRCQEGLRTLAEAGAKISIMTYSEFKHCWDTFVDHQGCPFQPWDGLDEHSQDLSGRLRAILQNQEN

[14] = biological target: T3, DNA dC->dU-editing enzyme APOBEC-3A; assay: SAR analysis of small molecule inhibitors of APOBEC3A DNA Deaminase via a fluorescence-based single-stranded DNA deaminase assay - Set 2.; type: functional; details: read-out: IC50_Mean
[15] = biological target: T4, DNA dC->dU-editing enzyme APOBEC-3G; assay: SAR analysis of small molecule inhibitors of APOBEC3G DNA Deaminase via a fluorescence-based single-stranded DNA deaminase assay - Set 2.; type: functional; details: read-out: IC50_Mean
[16] = biological target: T4, DNA dC->dU-editing enzyme APOBEC-3G; assay: Dose Response confirmation of small molecule APOBEC3G DNA Deaminase Inhibitors via a fluorescence-based single-stranded DNA deaminase assay. [Related pubchem assays (depositor defined):AID493012, AID493028]; type: functional
[17] = biological target: T3, DNA dC->dU-editing enzyme APOBEC-3A; assay: SAR analysis of small molecule inhibitors of APOBEC3A DNA Deaminase via a fluorescence-based single-stranded DNA deaminase assay.; type: functional; details: read-out: IC50_Mean
[18] = biological target: Cell division cycle 7-related protein kinase (Homo sapiens, UniProt O00311); type: functional;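 further: value obtained from a kinome-wide kinase panel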
[19] = biological target: Protein kinase C gamma type (Homo sapiens, UniProt P05129); type: functional
[20] = biological target: MAP kinase-activated protein kinase 3 (Homo sapiens, UniProt Q16644); type: functional;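 further: value comes from a kinome-wide profiling panel in which MAPKAPK3 is one of the panel members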
Chain of MAP kinase-activated protein kinase 3 (Q16644 whole entry): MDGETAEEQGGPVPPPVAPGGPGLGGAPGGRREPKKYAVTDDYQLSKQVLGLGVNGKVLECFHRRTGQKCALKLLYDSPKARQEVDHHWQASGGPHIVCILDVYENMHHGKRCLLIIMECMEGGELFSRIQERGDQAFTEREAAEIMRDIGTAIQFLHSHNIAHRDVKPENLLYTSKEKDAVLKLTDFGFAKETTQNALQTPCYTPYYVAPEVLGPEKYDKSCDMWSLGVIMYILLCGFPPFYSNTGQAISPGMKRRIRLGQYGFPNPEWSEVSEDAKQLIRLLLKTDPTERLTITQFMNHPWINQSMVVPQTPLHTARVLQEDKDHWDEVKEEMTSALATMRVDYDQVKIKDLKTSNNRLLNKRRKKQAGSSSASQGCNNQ

[21] = biological target: Eukaryotic elongation factor 2 kinase (Homo sapiens, UniProt O00418); type: functional
[22] = biological target: Lymphokine-activated killer T-cell-originated protein kinase (Homo sapiens, UniProt Q96KB5); type: functional;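 further: value comes from a kinase panel screen in which TOPK was one of the panel members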
[23] = biological target: Dual specificity tyrosine-phosphorylation-regulated kinase 4 (Homo sapiens, UniProt Q9NR20); type: functional
[24] = biological target: Testis-specific serine/threonine-protein kinase 2 (Homo sapiens, UniProt Q96PF2); type: functional;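 further: part of the Navigating the Kinome panel, target entry STK22B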
Chain of Testis-specific serine/threonine-protein kinase 2 (Q96PF2 whole entry): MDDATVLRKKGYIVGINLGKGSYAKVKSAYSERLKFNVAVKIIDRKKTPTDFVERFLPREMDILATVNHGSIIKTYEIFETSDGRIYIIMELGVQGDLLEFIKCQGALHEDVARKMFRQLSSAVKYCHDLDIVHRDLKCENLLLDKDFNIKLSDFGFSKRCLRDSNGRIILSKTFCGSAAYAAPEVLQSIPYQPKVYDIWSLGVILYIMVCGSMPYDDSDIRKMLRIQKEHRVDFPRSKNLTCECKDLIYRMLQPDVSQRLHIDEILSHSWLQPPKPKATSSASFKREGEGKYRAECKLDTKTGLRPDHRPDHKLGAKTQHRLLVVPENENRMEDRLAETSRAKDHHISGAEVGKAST

[25] = biological target: Dual specificity tyrosine-phosphorylation-regulated kinase 3 (Homo sapiens, UniProt O43781); type: functional;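 further: measured as one member of a broad kinase panel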

## Cc1cc2ccccc2n1CCNC(=O)c1ccc(S(=O)(=O)N2CCCCC2)cc1
[1]
  EC50: 5.91 µM (active)
[2]
  EC50: 1 µM (active)
[3]
  EC50: 13.6 µM (not active)
[4]
  EC50: > 20 µM (inactive)
[5]
  AC50: 6.69 µM (active)
[6]
  EC50: 6.53 µM (active)

## N#Cc1cnc2c(Br)cnn2c1N
[7]
  Ki: 100 µM (active)
[8]
  Ki: 79.4 µM (active)

## COc1ccc(-c2cc(C(=O)N(C3CCCCC3)C3CCCCC3)no2)cc1OC
[9]
  EC50: > 50 µM (inactive)
[10]
  EC50: > 50 µM (inactive)

## Sc1nnc(NCCc2ccccc2)s1
[11]
  EC50: > 104 µM (inactive)
[12]
  IC50: > 100 µM (inactive)
[13]
  IC50: 0.835 µM (active)
[14]
  IC50: > 99 µM (inactive)
[15]
  IC50: 0.695 µM (active)
[16]
  IC50: 1.2 µM (active)
[17]
  IC50: > 99 µM (inactive)

## Cc1ccc(NC(=O)c2ccc(CN3CCN(C)CC3)cc2)cc1Nc1nccc(-c2cccnc2)n1 [IMATINIB]
[18]
  Ki: > 1.26 µM (inactive)
[19]
  Ki: > 7.94 µM (inactive)
[20]
  Ki: > 10 µM (inactive)
[21]
  Ki: > 3.98 µM (inactive)
[22]
  Ki: > 10 µM (inactive)
[23]
  Ki: > 7.94 µM (inactive)
[24]
  Ki: > 1.58 µM (inactive)
[25]
  Ki: > 6.31 µM (inactive)
